Values joined by “and” are separate entries in the source; they are usually repeats but may differ in a detail not shown here. Equal entries are not always repeated. “Also recorded” adds a separate entry of the source.
Legend:
subterranean termites = subterranean termites fed hexaflumuron bait; cited from earlier work
Reticulitermes spp. [1] = test: Diet consumption by groups of termites in no-choice and choice bioassay arenas; format: in vivo
Method: Subterranean Termite Collection. Five wild populations of Reticulitermes spp. were collected from fallen wood in forested areas of Fairfax County (N38° 43.29′ and W77° 30.93′), Montgomery County (N37° 12.46′ and W80° 24.47′), Rockbridge County (N37° 48.00′ and W 79° 25.00′), and Roanoke County (N37° 19.53′ and W79° 58.53′), Virginia. Termites were harvested by placing the infested wood into large storage bins (70 L; Sterlite®; Sterlite Corporation, Townsend, Mass.) on top of damp, recycled paper towels (Acclaim®; Fort James Corporation, Deerfield, Ill.). As the wood dried out the termites moved into the moist paper towels. The infested paper towels were then transferred to plastic storage containers (11.3 L; Rubbermaid, Wooster, Ohio) containing vermiculite (500 g; moistened 150% by weight (Lenz M., T. L. Amburgey, D. Zi-Rong, H. Kuhne, J. K. Mauldin, A. F. Preston, and M. Westcott, 1987, Interlaboratory studies on termite-wood decay fungi associations: I. Determination of maintenance conditions for several species of termites (Isoptera: Mastotermitidae, Termopsidae, Rhinotermitidae), Sociobiology, 13:1-56; Cherokee Vermiculite Horticultural Fine Cherokee Products, Jefferson City, Tenn.). Subterannean termite containers were stored in complete darkness (˜21° C. and 97% RH) until needed for testing. Subterranean termites were tested within one month after being collected from the field.
Termite Diet Preparation. Recycled brown paper toweling (Acclaim®) was cut into squares (35×35 mm) and used as a diet substrate. The diet substrates were placed into glass Pyrex Petri dishes (100×20 mm; Corning Glass Works, Corning, N.Y.) and dried overnight in a single wall, gravity convection, laboratory oven (60° C.; Blue M SW-17TA; Blue M Electric Company; Blue Island, Ill.). After 24 hours, each diet substrate was taken out of the oven, numbered in the corner with a pencil and weighed on a balance (Mettler AE163; Lab Tech, Inc.) to the nearest 0.1 mg. After weighing, certain diets were treated with radiochemicals. Because hexaflumuron cannot be stored at temperatures greater than 50° C., radioisotopes were only applied after the diets were oven dried. The weight of the isotopes on the diet after air drying was determined to be negligible.
Control Diets. Control diets were treated with the visual marker only. The visual marker was formulated by dissolving Nile Blue-A in acetone and applying a 150 μl aliquot of dye solution to each diet substrate. The final Nile Blue-A concentration on the diet was 0.1%.
^14C-hexaflumuron Diets. A stock solution of technical grade hexaflumuron, ^14C-hexaflumuron (0.5% total hexaflumuron concentration) and 0.1% Nile Blue-A was formulated in acetone. An aliquot (150 μl) of the solution was applied to each diet substrate so that each diet contained 0.27 μCi of the ^14C-hexaflumuron.
^3H-inulin Diets. A stock solution of the ^3H-inulin and 0.1% Nile Blue-A (1.95 mg) was formulated in acetone. An aliquot (150 μl) of the solution was applied to each diet substrate so that each diet contained […] of the ^3H-inulin. ^3H has a lower energy spectrum than ^14C, so ˜8× more ^3H-inulin was added to the diets than ^14C-hexaflumuron to facilitate radioisotope quantification process after termite consumption.
Bioassay Arenas: Consumption bioassays were performed in choice and non-choice bioassay arenas. Arena tests were used to evaluate termite consumption of hexaflumuron treated bait alone and in the presence of a competing food source.
No-Choice Bioassay. No-choice bioassay arenas were assembled by connecting two Petri dishes with Tygon tubing (inner diameter 3.2 mm, outer diameter 6.4 mm). Petri dishes were washed 4 times in tap water to eliminate static electricity. Tygon tubing was soaked in tap water for 3 hours and allowed to air dry prior to use. One Petri dish (95 mm×15 mm; Fisher Scientific) served as a termite housing chamber and was filled with moist sand (˜45 g). […]

Reticulitermes spp. [2] = test: Diet consumption by individual termites, radioisotope quantification by scintillation counting; format: in vivo; conditions: for feeding preference of individual termites: choice test 14C-hexaflumuron and 3H-inulin
Method: Diet Consumption by Individual Termites. After mortality was recorded for a particular treatment/day, 20 surviving termites were randomly selected from each radioactive treatment arena for isotope analysis. Random selection was not limited to dyed termites. Non-dyed termites were also selected. The termites were thoroughly rinsed with distilled water three times to remove any radioactivity from the outside of the body. They were next placed on paper towels to remove excess water. Each rinsed, dried termite was placed into a separate microcentrifuge tube (1.5 ml; Fisher Brand), and the body was homogenized in 200 μl of distilled water. The homogenate was transferred into a glass scintillation vial (20 ml; Kimble Glass, Vineland, N.J.). Microcentrifuge tubes were rinsed three times with 200 μl of distilled water per rinse. Each rinse was added to the homogenate in the scintillation vial. An aliquot of scintillation cocktail (8 ml; Scintiverse® BD; Fisher Scientific, Fair Lawn, N.J.) was then added to each vial.
The amount of radioactivity contained within each sample was quantified by using a scintillation counter (Beckman Coulter, Inc.™ LS 6500, Fullerton, Calif.). The individual termite samples contained very low dpm counts. Therefore, sample vials containing only a single isotope (from no-choice tests) were counted for 10 minutes. However, sample vials that potentially could contain dual isotopes (from choice-tests) were counted for 20 minutes to improve the accuracy of the counts.
Background Radioactivity Measurements. After termite mortality had been recorded, 2 termites were selected at random from each no-choice, control arena. These termites were rinsed, homogenized, and prepared for scintillation counting as previously described. Control termites were counted in the scintillation counter for 10 minutes to record background radioactivity. Background radioactivity was measured for each treatment group (choice and no-choice) at both 2 d and 5 d. Background measurements also accounted for any quenching that occurred due to the termite body fragments occluding light transmission in the scintillation counter. Before the test data was analyzed, background radioactivity counts for a particular sample was subtracted from the sample's spectral peak (Traniello, J. F. A., R. B. Rosengaus and C. K. Levy, 1985, Single and double isotope labeling of social insect colonies, Entomol. Exp. Appl., 38:87-92; Suarez, M. E. and B. L. Thorne, 2000, Effects of food type and foraging distance on trophallaxis in the subterranean termite Reticulitermes virginicus (Isoptera: Rhinotermitidae), Sociobiology, 35: 487-498).
Radiolabel Counting using Dual Label Technique. Specialized procedures were required for analysis of radiolabeled samples containing both ^14C and ^3H. Due to the potential low/high counts and spillover of ^14C and ^3H in the counting window, a series of dilutions was made from extracted diets (with known amounts of activity) to correct for spillover. The range of activity values for ^14C and ^3H and a combination of the two isotopes within the samples was determined. Spillover correction curves were generated for the range of sample data and used to correct those samples where high levels of both ^14C and ^3H occurred and spillover was evident.
Quantification of radioactive isotopes from individual termite cadavers was used to determine how much a single termite consumed of ^14C-hexaflumuron diet in the presence of a competing food source. Mean consumption of ^14C-hexaflumuron diet in the no-choice test was compare with ^14C-hexaflumuron consumption in the choice test using GLM ANOVA with Least Squares adjustment for multiple comparisons of mean values. For all tests data was analyzed separately for 2 d and 5 d.
Finally, mean consumption of the two radioisotopes, ^14C-hexaflumuron and ^3H-inulin, in the choice tests were compared to determine whether termites preferred one diet over another. […]

[3] = test system: eastern subterranean termites; conditions: in vivo; cited from earlier work
Reticulitermes sp. = test: Inulin treated vs untreated paper towel diets placed on yellow pine termite harborages; format: in vivo; conditions: average of 7 d
Method: Subterranean termites, Reticulitermes sp. were reared in the laboratory in Nunc dishes containing strips of yellow pine wood as a food resource and termite harborage. Inulin treated and untreated paper towel diets were weighed and then placed side by side on the top of the termite harborages (strips of yellow pine). Termites were allowed to forage for an average of 7 d. After the test period, the diets were removed, weighed and consumption of each towel diet was recorded as a percentage of total consumption of both paper towel diets.

[4] = choice test hexaflumuron and inulin diets, 2 d
[5] = choice test hexaflumuron and inulin diets, 5 d
[6] = choice test 14C-hexaflumuron and 3H-inulin diets, 5 d
[7] = choice test hexaflumuron and inulin diets, 5 d, listed as inulin

O=C(NC(=O)c1c(F)cccc1F)Nc1cc(Cl)c(OC(F)(F)C(F)F)c(Cl)c1 [Hexaflumuron, N-(((3,5-dichloro-4-(1,1,2,2-tetrafluoroethoxy)phenyl)-amino)carbonyl)-2,6-difluorobenzamide]
LT50 (subterranean termites): ~26.6 days
onset of toxicity (subterranean termites): approximately 15 d
Hexaflumuron Consumption (mg) (Mean ± SEM) (Reticulitermes spp. [1]; choice test hexaflumuron and control diet, 2 d): 1.6 ± 0.9a mg
Hexaflumuron Consumption (mg) (Mean ± SEM) (Reticulitermes spp. [1]; choice test hexaflumuron and control diet, 2 d, listed as hexaflumuron): 1.6 mg
Hexaflumuron Consumption (mg) (Mean ± SEM) (Reticulitermes spp. [1]; choice test hexaflumuron and control diet, 5 d): 3.2 ± 1.4a mg
Hexaflumuron Consumption (mg) (Mean ± SEM) (Reticulitermes spp. [1]; choice test hexaflumuron and control diet, 5 d, listed as hexaflumuron): 3.2 mg
Consumption (mg) (Mean ± SEM) (Reticulitermes spp. [1]; [4]): 1.0 ± 0.8a mg
Consumption (mg) (Mean ± SEM) (Reticulitermes spp. [1]; choice test hexaflumuron and inulin diets, 2 d, listed as hexaflumuron): 1.0 mg
Consumption (mg) (Mean ± SEM) (Reticulitermes spp. [1]; [5]): 0.2 ± 0.1b mg and 0.2 ± 0.1 a mg
Consumption (mg) (Mean ± SEM) (Reticulitermes spp. [1]; choice test hexaflumuron and inulin diets, 5 d, listed as 14C-hexaflumuron): 0.2 mg
Consumption (mg) (Mean ± SEM) (Reticulitermes spp. [1]; choice test hexaflumuron and inulin diets, 5 d, listed as hexaflumuron): 0.2 mg
Hexaflumuron Consumption (mg) (Mean ± SEM) (Reticulitermes spp. [1]; no-choice test, 2 d, groups of 100 termite workers, 0.5% hexaflumuron diet): 3.0 ± 0.7a mg
Hexaflumuron Consumption (mg) (Mean ± SEM) (Reticulitermes spp. [1]; no-choice test, 2 d, groups of 100 termite workers, 0.5% hexaflumuron diet, listed as 14C-hexaflumuron): 3 mg
Hexaflumuron Consumption (mg) (Mean ± SEM) (Reticulitermes spp. [1]; no-choice test, 2 d, groups of 100 termite workers, 0.5% hexaflumuron diet, listed as hexaflumuron): 3.0 mg
Hexaflumuron Consumption (mg) (Mean ± SEM) (Reticulitermes spp. [1]; no-choice test, 5 d, groups of 100 termite workers, 0.5% hexaflumuron diet): 11.4 ± 3.9a mg
Hexaflumuron Consumption (mg) (Mean ± SEM) (Reticulitermes spp. [1]; no-choice test, 5 d, groups of 100 termite workers, 0.5% hexaflumuron diet, listed as 14C-hexaflumuron): 11.4 mg
Hexaflumuron Consumption (mg) (Mean ± SEM) (Reticulitermes spp. [1]; no-choice test, 5 d, groups of 100 termite workers, 0.5% hexaflumuron diet, listed as hexaflumuron): 11.4 mg
consumption by an individual termite (Reticulitermes spp. [2]; choice test 14C-hexaflumuron and 3H-inulin diets, 2 d): 7.3 µg
consumption by an individual termite (Reticulitermes spp. [2]; [6]): 2.3 µg
feeding preference of individual termites (Reticulitermes spp. [2]; 2 d): did not prefer either diet
consumption by an individual termite (Reticulitermes spp. [2]; choice test competing with control diet, 2 d): 14.5 µg
consumption by an individual termite (Reticulitermes spp. [2]; choice test in presence of control diet, 5 d): 19.3 µg
consumption by an individual termite (Reticulitermes spp. [2]; no-choice test, 2 d): 38.9 µg
consumption by an individual termite (Reticulitermes spp. [2]; no-choice test, 5 d): 56.9 µg
mean half life within the body of a termite [3]: ~220 h

inulin
preferential consumption versus untreated towels and yellow pine wood (Reticulitermes sp.): preferentially consumed inulin treated paper towels over untreated towels and yellow pine wood
Termite Consumption Mean % ± SEM (percentage of total consumption of both paper towel diets) (Reticulitermes sp.; choice, in presence of yellow pine): 64.7 ± 4.5%
Consumption (mg) (Mean ± SEM) (Reticulitermes spp. [1]; [4]): 2.0 ± 0.6 mg
Consumption (mg) (Mean ± SEM) (Reticulitermes spp. [1]; [5]): 6.0 ± 1.3 mg and 6.0 ± 1.3 b mg
Consumption (mg) (Mean ± SEM) (Reticulitermes spp. [1]; [7]): 6.0 mg
feeding preference of termite populations (consumption significantly greater than 50% of total) (Reticulitermes spp. [1]; [7]): preference for the inulin diet was indicated; also recorded: preference for the inulin treated bait
consumption of inulin treated bait relative to Hexaflumuron treated bait (Reticulitermes spp. [1]; choice test, 5 d, Table B): 30 times
consumption by an individual termite (Reticulitermes spp. [2]; [6]): 19.4 µg
feeding preference of individual termites (Reticulitermes spp. [2]; 2 d): did not prefer either diet
feeding preference of individual termites (Reticulitermes spp. [2]; 5 d, listed as 3H-inulin): significant preference
feeding preference of individual termites (Reticulitermes spp. [2]; 5 d, listed as inulin): significant preference for the inulin treated bait

Source: patent US20080233080A1, “Inulins, Levans, Fructans And Other Smaller-Than-Cellulose Termite Feeding Attractants, And Termite” (priority 2004, published 2008)
